Results as given in US20120245161A1 (SANOFI, priority 2009, published 2012).
Several values for one entry are separate records, joined by “and”; a condition that tells them apart may be missing. Identical values can stand only once. Counter-ions that a name gives are not always drawn.

Target: T1, recombinant human beta tryptase (Homo sapiens, UniProt P20231)
T1 construct: made in house; host or cells: yeast cells
Assay: beta-Tryptase inhibition, chromogenic enzyme assay (substrate S2366, read at 405 nm)
Format: biochemical
Details: Ki calculated from IC50: Ki=IC50/(1+[Substrate]/Km); 0.5 mM substrate, room temperature; read-out: Tryptase Ki
Excerpt: Inhibition of this catalytic activity may be measured by the in vitro enzyme assay and the cellular assay.
Tryptase inhibition activity is confirmed using either isolated human lung tryptase or recombinant human beta tryptase expressed in yeast cells. Essentially equivalent results are obtained using isolated native enzyme or the expressed enzyme. The assay procedure employs a 96 well microplate (Costar 3590) using L-pyroglutamyl-L-prolyl-L-arginine-para-nitroanilide (S2366: Quadratech) as substrate (essentially as described by McEuen et. al. Biochem Pharm, 1996, 52, pages 331-340). Assays are performed at room temperature using 0.5 mM substrate (2×Km) and the microplate is read on a microplate reader (Beckman Biomek Plate reader) at 405 nm wavelength.
Materials and Methods for Tryptase primary screen (Chromogenic assay)
S2366 (Stock solutions of 2.5 mM).
Purified recombinant beta Tryptase Stocks of 310 μg/mL. Protocol (Single point determination) • Add 60 μL of diluted substrate (final concentration of 500 μM in assay buffer) to each well • Add compound in duplicates, final concentration of 20 volume 20 • Add enzyme at a final concentration of 50 ng/mL in a volume of 20 • Total volume for each well is 100 • Agitate briefly to mix and incubate at room temp in the dark for 30 minutes • Read absorbencies at […] Each plate has the following controls: • Totals: 60 μL of substrate, 20 μL of buffer (with 0.2% final concentration of DMSO), • 20 μL of enzyme Non-specific: 60 μL of substrate, 40 μL of buffer (with 0.2% DMSO) Totals: 60 μL of substrate, 20 μL of buffer (No DMSO), 20 μL of enzyme Non-specific: 60 μL of substrate, 40 μL of buffer (No DMSO) Protocol (IC50 and Ki determination)
The protocol is essentially the same as above except that the compound is added in duplicates at the following final concentrations: 0.01, 0.03, 0.1, 0.3, 1, 3, 10 μM (All dilutions carried out manually). For every assay, whether single point or IC50 determination, a standard compound is used to derive IC50 for comparison. From the IC50 value, the Ki can be calculated using the following formula: Ki=IC50/(1+[Substrate]/Km).

T1 sequence (P20231 31-275): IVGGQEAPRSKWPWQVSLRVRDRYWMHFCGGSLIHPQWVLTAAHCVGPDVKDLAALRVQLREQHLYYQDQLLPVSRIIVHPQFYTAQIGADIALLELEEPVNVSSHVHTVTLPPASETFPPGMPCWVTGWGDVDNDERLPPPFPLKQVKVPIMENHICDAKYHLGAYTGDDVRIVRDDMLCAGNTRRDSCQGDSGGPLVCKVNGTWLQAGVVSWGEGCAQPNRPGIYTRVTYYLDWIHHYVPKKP

| Compound | Ki |
| --- | --- |
| Cc1cccc2c(C(=O)N3CCC(c4cc(CN)ccc4F)CC3)cn(CCN3CCCC3)c12 [Example 13, [4-(5-Aminomethyl-2-fluoro-phenyl)-piperidin-1-yl]-[7-methyl-1-(2-pyrrolidin-1-yl-ethyl)-1H-indol-3-yl]-methanone dihydrochloride] | 75 nM |

Same assay, conditions: Tryptase Ki (nM), Ki calculated from IC50: Ki=IC50/(1+[Substrate]/Km); 0.5 mM substrate, room temperature

| Compound | Ki |
| --- | --- |
| COCCn1cc(C(=O)N2CCC(c3cc(CN)ccc3F)CC2)c2cccc(OC(F)(F)F)c21 [Example 1, [4-(5-Aminomethyl-2-fluoro-phenyl)-piperidin-1-yl]-[1-(2-methoxy-ethyl)-7-trifluoromethoxy-1H-indol-3-yl]-methanone hydrochloride] | 47 nM |
| Cc1cccc2c(C(=O)N3CCC(c4cccc(CN)c4)CC3)cn(CCN3CCOCC3)c12 [Example 2, [4-(3-Aminomethyl-phenyl)-piperidin-1-yl]-[7-methyl-1-(2-morpholin-4-yl-ethyl)-1H-indol-3-yl]-methanone hydrochloride] | 234 nM |
| Cc1cccc2c(C(=O)N3CCC(c4cc(CN)ccc4F)CC3)cn(CCN3CCOCC3)c12 [Example 3, [4-(5-Aminomethyl-2-fluoro-phenyl)-piperidin-1-yl]-[7-methyl-1-(2-morpholin-4-yl-ethyl)-1H-indol-3-yl]-methanone hydrochloride] | 109 nM |
| Cc1cccc2c(C(=O)N3CCC(c4cc(CN)ccc4F)CC3)cn(CCCc3ccccc3)c12 [Example 4, [4-(5-Aminomethyl-2-fluoro-phenyl)-piperidin-1-yl]-[7-methyl-1-(3-phenyl-propyl)-1H-indol-3-yl]-methanone hydrochloride] | 1300 nM |
| Cc1cccc2c(C(=O)N3CCC(c4cc(CN)ccc4F)CC3)cn(CCc3ccccc3)c12 [Example 5, [4-(5-Aminomethyl-2-fluoro-phenyl)-piperidin-1-yl]-(7-methyl-1-phenethyl-1H-indol-3-yl)-methanone hydrochloride] | 96 nM and 56 nM |
| COCCn1cc(C(=O)N2CCC(c3cc(CN)ccc3F)CC2)c2cccc(C3CC3)c21 [Example 6, [4-(5-Aminomethyl-2-fluoro-phenyl)-piperidin-1-yl]-[7-cyclopropyl-1-(2-methoxy-ethyl)-1H-indol-3-yl]-methanone hydrochloride] | 20 nM |
| Cc1cccc2c(C(=O)N3CCC(c4cc(CN)ccc4F)CC3)cn(CCCN3CCOCC3)c12 [Example 7, [4-(5-Aminomethyl-2-fluoro-phenyl)-piperidin-1-yl]-[7-methyl-1-(3-morpholin-4-yl-propyl)-1H-indol-3-yl]-methanone hydrochloride] | 139 nM |
| Cc1cccc2c(C(=O)N3CCC(c4cc(CN)ccc4F)CC3)cn(CCC3CCCCN3C)c12 (stereo not shown) [Example 8, [4-(5-Aminomethyl-2-fluoro-phenyl)-piperidin-1-yl]-{7-methyl-1-[2-(1-methyl-piperidin-2-yl)-ethyl]-1H-indol-3-yl}-methanone hydrochloride] | 35 nM |
| COCCn1cc(C(=O)N2CCC(c3cc(CN)ccc3C(F)F)CC2)c2cccc(C)c21 [Example 9, [4-(5-Aminomethyl-2-difluoromethyl-phenyl)-piperidin-1-yl]-[1-(2-methoxy-ethyl)-7-methyl-1H-indol-3-yl]-methanone hydrochloride] | 203 nM |
| Cc1cccc2c(C(=O)N3CCC(c4cc(CN)ccc4F)CC3)cn(CCCc3cccnc3)c12 [Example 10, [4-(5-Aminomethyl-2-fluoro-phenyl)-piperidin-1-yl]-[7-methyl-1-(3-pyridin-3-yl-propyl)-1H-indol-3-yl]-methanone dihydrochloride] | 175 nM |
| COCCn1cc(C(=O)N2CCC(c3cc(CN)ccc3F)CC2)c2cccc(C(F)(F)F)c21 [Example 11, [4-(5-Aminomethyl-2-fluoro-phenyl)-piperidin-1-yl]-[1-(2-methoxy-ethyl)-7-trifluoromethyl-1H-indol-3-yl]-methanone hydrochloride] | 56 nM |
| COCCn1cc(C(=O)N2CCC(c3cc(CN)ccc3F)CC2)c2cccc(C(F)F)c21 [Example 12, [4-(5-Aminomethyl-2-fluoro-phenyl)-piperidin-1-yl]-[7-difluoromethyl-1-(2-methoxy-ethyl)-1H-indol-3-yl]-methanone hydrochloride] | 26 nM |
| COCCn1cc(C(=O)N2CCC(c3cc(CN)ccc3F)CC2)c2cccc(OC(F)F)c21 [Example 14, [4-(5-Aminomethyl-2-fluoro-phenyl)-piperidin-1-yl]-[7-difluoromethoxy-1-(2-methoxy-ethyl)-1H-indol-3-yl]-methanone hydrochloride] | 83 nM |
| NCc1ccc(F)c(C2CCN(C(=O)c3cn(CCc4ccccc4)c4ccccc34)CC2)c1 [Example 15, [4-(5-Aminomethyl-2-fluoro-phenyl)-piperidin-1-yl]-(1-phenethyl-1H-indol-3-yl)-methanone hydrochloride] | 18 nM |
| Cc1cccc2c(C(=O)N3CCC(c4cc(CN)ccc4F)CC3)cn(CCCF)c12 [Example 16, [4-(5-Aminomethyl-2-fluoro-phenyl)-piperidin-1-yl]-[1-(3-fluoro-propyl)-7-methyl-1H-indol-3-yl]-methanone hydrochloride] | 97 nM |
| Cc1cccc2c(C(=O)N3CCC(c4cc(CN)ccc4F)CC3)cn(CCCO)c12 [Example 17, hydrochloride] | 37 nM |
| COCCn1cc(C(=O)N2CCC(c3cc(CN)ccc3F)CC2)c2cccc(C#N)c21 [Example 18, 3-[4-(5-Aminomethyl-2-fluoro-phenyl)-piperidine-1-carbonyl]-1-(2-methoxy-ethyl)-1H-indole-7-carbonitrile] | 40 nM |
| COCCn1cc(C(=O)N2CCC(c3cc(CN)ccc3F)CC2)c2cccc(C3CCC3)c21 [Example 19, [4-(5-Aminomethyl-2-fluoro-phenyl)-piperidin-1-yl]-[7-cyclobutyl-1-(2-methoxy-ethyl)-1H-indol-3-yl]-methanone hydrochloride] | 94 nM |
| Cc1cccc2c(C(=O)N3CCC(c4cc(CN)ccc4F)CC3)cn(CCO)c12 [Example 20, [4-(5-Aminomethyl-2-fluoro-phenyl)-piperidin-1-yl]-[1-(2-hydroxy-ethyl)-7-methyl-1H-indol-3-yl]-methanone hydrochloride] | 19 nM |
| Cc1cccc2c(C(=O)N3CCC(c4cc(CN)ccc4F)CC3)cn(CCOCCO)c12 [Example 21, [4-(5-Aminomethyl-2-fluoro-phenyl)-piperidin-1-yl]-{1-[2-(2-hydroxy-ethoxy)-ethyl]-7-methyl-1H-indol-3-yl}-methanone hydrochloride] | 28 nM |
| NCc1ccc(F)c(C2CCN(C(=O)c3cn(CCO)c4c(OC(F)(F)F)cccc34)CC2)c1 [Example 22, [4-(5-Aminomethyl-2-fluoro-phenyl)-piperidin-1-yl]-[1-(2-hydroxy-ethyl)-7-trifluoromethoxy-1H-indol-3-yl]-methanone hydrochloride] | 390 nM |
| COCCn1cc(C(=O)N2CCC(c3cc(CN)ccc3OCC(=O)OC)CC2)c2cccc(C)c21 [Example 23, (4-Aminomethyl-2-{1-[1-(2-methoxy-ethyl)-7-methyl-1H-indole-3-carbonyl]-piperidin-4-yl}-phenoxy)-acetic acid methyl ester hydrochloride] | 42 nM |
| COCCn1cc(C(=O)N2CCC(c3cc(CN)ccc3OCC(=O)OC)CC2)c2cccc(OC(F)(F)F)c21 [Example 24, (4-Aminomethyl-2-{1-[1-(2-methoxy-ethyl)-7-trifluoromethoxy-1H-indole-3-carbonyl]-piperidin-4-yl}-phenoxy)-acetic acid methyl ester hydrochloride] | 98 nM |
| COCCn1cc(C(=O)N2CCC(c3cc(CN)ccc3OCC(=O)N(C)C)CC2)c2cccc(C)c21 [Example 25, 2-(4-Aminomethyl-2-{1-[1-(2-methoxy-ethyl)-7-methyl-1H-indole-3-carbonyl]-piperidin-4-yl}-phenoxy)-N,N-dimethyl-acetamide hydrochloride] | 672 nM |
| CNC(=O)COc1ccc(CN)cc1C1CCN(C(=O)c2cn(CCOC)c3c(C)cccc23)CC1 [Example 26, 2-(4-Aminomethyl-2-{1-[1-(2-methoxy-ethyl)-7-methyl-1H-indole-3-carbonyl]-piperidin-4-yl}-phenoxy)-N-methyl-acetamide hydrochloride] | 306 nM |
| NCc1ccc(F)c(C2CCN(C(=O)c3cn(CCOCCO)c4c(OC(F)(F)F)cccc34)CC2)c1 [Example 27, [4-(5-Aminomethyl-2-fluoro-phenyl)-piperidin-1-yl]-{1-[2-(2-hydroxy-ethoxy)-ethyl]-7-trifluoromethoxy-1H-indol-3-yl}-methanone hydrochloride] | 164 nM |

Same assay, conditions: Tryptase Ki (nM), additional value in parentheses tagged "8923" (code not explained)

| Compound | Ki |
| --- | --- |
| Cc1cccc2c(C(=O)N3CCC(c4cc(CN)ccc4F)CC3)cn(CCc3ccccc3)c12 [Example 5, [4-(5-Aminomethyl-2-fluoro-phenyl)-piperidin-1-yl]-(7-methyl-1-phenethyl-1H-indol-3-yl)-methanone hydrochloride] | 11 nM |
